Assays:
[1] = Polymorph screening by mixing shaking; assay type: physicochemical; details: mixed crystal forms I to III shaken 1 day at room temperature in different solvents
Experimental: Mixing shaking test was conducted using different solvent systems. 2 mg of each crystal form of crystal form I to crystal form III was weighed into a glass vial to obtain the mixed crystals, the appropriate amount of organic reagents in Table 6 were added, screwed the cap, and a sealing film was used to prevent the solvent from volatilizing, shaken for 1 days at room temperature and 25 r/min, taken out and centrifuged at 10000 r/min for 10 min at 4° C., the supernatant was poured, and the solid was placed in a oven at 50° C. for drying, the resulting solid was collected and sent for XRPD test.

PRC2 (EZH2-Y641F) = molecular target: T1, PRC2 (EZH2-Y641F) (Homo sapiens, UniProt Q15910, Y641F); assay: In vitro methyltransferase assay; assay type: biochemical
T1 construct: purchased Active motif
Experimental: Recombinant PRC2 (EZH2-Y641F) was purchased from Active motif, S-adenosyl-methionin chloride (SAM) and Poly-L-lysine (PLL) were purchased from Sigma-Aldrich, H3(1-50)K27me1 peptide was purchased from Cisbio. LANCEUltra (Perkinelmer) system was used for detection. For the enzyme activity test, tested compounds are 1:3 diluted for 8-points, and added into each well, then 100 ng enzyme is added. And then the buffer [20 mM Tris pH8.5, 2 mM MgCl2, 0.01% Tween-20, 1 mM TCEP] containing […]/250 nM H3 (1-50)K27me1 premixtures are added. After 3 hours enzyme reaction at RT, the premixed detection buffer (PLL, Europium antibody and Ulight) is added, and react for 1 h at RT, then read fluorescence on Tecan infinite pro. IC50s are counted by XLfit using a four-parameter model.

Pfeiffer cells = assay: Cell proliferation assay, Pfeiffer; assay type: cell-based; details: Homo sapiens, Pfeiffer, 144 h; 6 days' growth, cell counting kit-8
Experimental: Cell lines Pfeiffer (CRL-2632), suDHL-6 (CRL-2959) and suDHL-10 (CRL-2963) were obtained from ATCC. All cell lines were cultured in RPMI-1640 medium (Gibco) plus 10% FBS (Gibco). Cells are harvested by centrifuge and densities are determined using a CounterStar cell counter. Appropriate number of cells are plated in a96-well culture plate and pre-incubate overnight. Tested compounds are 1:3 diluted for 8-points and added into each well. After 6 days' growth, cell counting kit-8 (Dojindo) is used to detect cell viability and read on Tecan infinite pro. IC50s are counted by XLfit using a four-parameter model.

T1 sequence (Q15910 whole entry Y641F): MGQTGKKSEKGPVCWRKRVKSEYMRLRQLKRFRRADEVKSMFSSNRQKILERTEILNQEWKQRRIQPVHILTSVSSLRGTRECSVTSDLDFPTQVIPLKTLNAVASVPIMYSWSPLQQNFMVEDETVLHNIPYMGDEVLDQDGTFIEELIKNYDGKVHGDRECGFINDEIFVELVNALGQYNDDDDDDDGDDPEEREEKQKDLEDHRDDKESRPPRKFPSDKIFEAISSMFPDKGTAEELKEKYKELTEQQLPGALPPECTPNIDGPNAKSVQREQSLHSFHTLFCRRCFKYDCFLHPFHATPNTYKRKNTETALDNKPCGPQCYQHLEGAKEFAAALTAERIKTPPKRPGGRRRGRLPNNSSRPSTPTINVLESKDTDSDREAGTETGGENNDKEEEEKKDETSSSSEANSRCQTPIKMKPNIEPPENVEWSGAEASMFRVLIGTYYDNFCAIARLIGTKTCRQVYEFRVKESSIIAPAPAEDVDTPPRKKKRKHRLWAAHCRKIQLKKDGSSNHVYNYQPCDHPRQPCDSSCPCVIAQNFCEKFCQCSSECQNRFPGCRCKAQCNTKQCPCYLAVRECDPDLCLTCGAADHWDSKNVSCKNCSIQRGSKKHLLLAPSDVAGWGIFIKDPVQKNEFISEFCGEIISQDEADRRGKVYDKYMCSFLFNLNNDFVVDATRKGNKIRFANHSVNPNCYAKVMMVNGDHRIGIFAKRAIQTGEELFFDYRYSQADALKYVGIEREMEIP
T1 sequence (O75530 whole entry partner): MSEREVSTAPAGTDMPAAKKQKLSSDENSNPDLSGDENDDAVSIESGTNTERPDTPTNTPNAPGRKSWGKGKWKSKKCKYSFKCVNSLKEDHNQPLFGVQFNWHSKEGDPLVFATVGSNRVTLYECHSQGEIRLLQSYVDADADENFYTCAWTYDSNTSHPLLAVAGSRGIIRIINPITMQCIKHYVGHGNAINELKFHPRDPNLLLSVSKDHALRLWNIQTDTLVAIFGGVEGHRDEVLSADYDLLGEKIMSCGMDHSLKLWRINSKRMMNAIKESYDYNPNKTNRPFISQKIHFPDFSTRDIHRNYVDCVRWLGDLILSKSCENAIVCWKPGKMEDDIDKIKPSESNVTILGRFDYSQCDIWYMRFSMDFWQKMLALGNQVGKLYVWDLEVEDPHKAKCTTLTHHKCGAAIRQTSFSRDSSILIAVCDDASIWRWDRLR
T1 sequence (Q15022 whole entry partner): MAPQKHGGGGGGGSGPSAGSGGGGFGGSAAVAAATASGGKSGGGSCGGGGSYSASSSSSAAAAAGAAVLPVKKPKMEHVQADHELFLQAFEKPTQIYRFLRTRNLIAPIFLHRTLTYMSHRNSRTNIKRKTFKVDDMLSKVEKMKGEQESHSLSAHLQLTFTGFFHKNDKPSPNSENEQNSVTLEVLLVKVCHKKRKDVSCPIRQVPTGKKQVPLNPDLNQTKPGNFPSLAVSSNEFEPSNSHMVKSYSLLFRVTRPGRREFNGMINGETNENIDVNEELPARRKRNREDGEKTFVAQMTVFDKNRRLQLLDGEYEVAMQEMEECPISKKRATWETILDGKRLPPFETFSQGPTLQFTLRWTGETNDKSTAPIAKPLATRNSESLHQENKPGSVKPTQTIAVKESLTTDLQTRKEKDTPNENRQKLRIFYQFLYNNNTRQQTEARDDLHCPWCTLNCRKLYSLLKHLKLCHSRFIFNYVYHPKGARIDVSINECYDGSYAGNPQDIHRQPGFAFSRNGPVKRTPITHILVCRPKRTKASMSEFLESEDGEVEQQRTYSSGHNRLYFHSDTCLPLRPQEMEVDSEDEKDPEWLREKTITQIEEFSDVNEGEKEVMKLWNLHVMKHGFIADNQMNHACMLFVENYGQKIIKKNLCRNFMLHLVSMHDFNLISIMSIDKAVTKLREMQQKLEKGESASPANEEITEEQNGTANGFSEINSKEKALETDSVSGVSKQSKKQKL
T1 sequence (Q09028 whole entry partner): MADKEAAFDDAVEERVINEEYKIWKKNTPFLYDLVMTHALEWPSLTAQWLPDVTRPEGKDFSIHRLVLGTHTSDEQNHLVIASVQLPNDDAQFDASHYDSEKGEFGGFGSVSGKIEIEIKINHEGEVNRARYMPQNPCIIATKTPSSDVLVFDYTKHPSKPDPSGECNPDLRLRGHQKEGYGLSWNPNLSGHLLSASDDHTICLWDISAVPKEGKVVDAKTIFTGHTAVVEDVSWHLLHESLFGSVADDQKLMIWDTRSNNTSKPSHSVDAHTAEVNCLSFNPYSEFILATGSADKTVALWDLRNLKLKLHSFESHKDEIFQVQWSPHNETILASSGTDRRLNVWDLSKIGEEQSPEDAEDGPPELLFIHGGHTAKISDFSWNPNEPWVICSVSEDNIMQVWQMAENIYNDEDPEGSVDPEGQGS
T1 sequence (Q6ZN18 whole entry partner): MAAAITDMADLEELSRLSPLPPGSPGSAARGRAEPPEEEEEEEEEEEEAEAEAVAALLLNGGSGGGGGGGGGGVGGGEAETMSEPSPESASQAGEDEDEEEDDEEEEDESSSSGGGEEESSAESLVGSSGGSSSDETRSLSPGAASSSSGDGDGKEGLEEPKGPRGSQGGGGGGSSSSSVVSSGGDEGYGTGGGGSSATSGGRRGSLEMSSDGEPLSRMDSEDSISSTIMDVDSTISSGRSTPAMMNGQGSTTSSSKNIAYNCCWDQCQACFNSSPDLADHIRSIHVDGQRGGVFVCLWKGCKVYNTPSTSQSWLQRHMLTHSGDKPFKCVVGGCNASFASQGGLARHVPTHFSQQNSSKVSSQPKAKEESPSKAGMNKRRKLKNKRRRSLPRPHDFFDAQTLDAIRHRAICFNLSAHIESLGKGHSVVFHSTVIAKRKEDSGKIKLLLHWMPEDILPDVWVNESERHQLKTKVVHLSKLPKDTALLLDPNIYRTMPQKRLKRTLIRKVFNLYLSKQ

| SMILES | stability of crystal form [1] | IC50 (PRC2 (EZH2-Y641F)) | IC50 (Pfeiffer cells) |
| --- | --- | --- | --- |
| CCc1c(C(=O)NCc2c(C)cc(C)[nH]c2=O)cc2c(cnn2C)c1N(CC)[C@H]1CC[C@H](N2CC(OC)C2)CC1 [Crystal form V] | stable crystal form | – | – |
| CCN(c1cc(C(=O)NCc2c(C)cc(C)[nH]c2=O)c(C)c2c1cnn2C)C1CCOCC1 [D1, N-((4,6-dimethyl-2-oxo-1,2-dihydropyridin-3-yl)methyl)-4-(ethyl (tetrahydro-2H-pyran-4-yl)amino)-1,7-dimethyl-1H-indazole-6-carboxamide] | – | > 10 µM | > 10 µM |

From US20210188813A1, “EZH2 INHIBITOR AND PHARMACEUTICALLY ACCEPTABLE SALTS AND POLYMORPHIC SUBSTANCES THEREOF, AND APPLICATION OF EZH2 INHIBITOR” (SHANGHAI HAIYAN PHARMACEUTICAL TECHNOLOGY CO., LTD., priority 2018, published 2021)
